# Data from PubChem BioAssay (NCI).
# Several values for one entry are separate records, joined by “and”; a condition that tells them apart may be missing. Identical values can stand only once.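 Results reflect a 48-hour exposure of cells in 96-well plates to compound at five concentrations. At the GI50, growth is halved. TGI marks complete inhibition of growth.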
# Columns and labels:
# Assay in all cases: growth of human tumour cells (NCI), 48 h
# [1] = system: SK-OV-3 ovarian
# [2] = system: BT-549 breast
# [3] = system: HCT-15 colon
# [4] = system: MDA-MB-435
# [5] = system: RPMI-8226 leukemia
# [6] = system: SK-MEL-5 melanoma
# [7] = system: OVCAR-5 ovarian
# [8] = system: HCT-116 colon
# [9] = system: UACC-62 melanoma
# [10] = system: LOX IMVI melanoma
Compound,TGI [1],TGI [2],TGI [3],TGI [4],TGI [5],TGI [6],TGI [7],TGI [8],GI50 [9],TGI [9],TGI [10],GI50 [1],GI50 [2],GI50 [3],GI50 [4],GI50 [5],GI50 [6],GI50 [7],GI50 [8],GI50 [10]
Nc1nc(N)c2c(n1)CCC(S(=O)(=O)c1ccc3ccccc3c1)C2 (stereo not drawn),> 100 µM,> 100 µM,> 100 µM,> 100 µM,> 84.4 µM,19.2 µM,> 100 µM,> 100 µM,0.678 µM,> 100 µM,> 100 µM,,,,,,,,,
CCOc1ccc2c(c1)C(=O)c1c-2n(CCCN=[N+]=[N-])c(=O)c2cc([N+](=O)[O-])ccc12,36.2 µM,> 100 µM,> 100 µM,> 100 µM,31 µM,4.84 µM,> 100 µM,> 100 µM,2.89 µM,24.1 µM,> 100 µM,5.9 µM,13.1 µM,16.9 µM,39.4 µM,2.25 µM,1.48 µM,6.07 µM,1.82 µM,3.02 µM
O=C(NN1C(=O)CSC1c1c(Cl)cccc1Cl)C(O)c1ccccc1 (stereo not drawn),> 100 µM,> 100 µM,> 100 µM,> 100 µM,> 100 µM,> 100 µM,> 100 µM,> 100 µM,7.15 µM,43.5 µM,> 100 µM,> 100 µM,80 µM,30.5 µM,25 µM,43.8 µM,32.8 µM,> 100 µM,36.7 µM,64.7 µM
NC1(C(=O)N[C@@H](CCO)c2ccc(Cl)cc2)CCN(c2ncnc3[nH]ccc23)CC1,> 3.09 µM and 38.5 µM,> 5.01 µM and 13 µM,> 100 µM,> 100 µM,> 81.8 µM,> 5.59 µM and 62 µM,> 100 µM,> 10 µM and 78.6 µM,0.608 µM and 1.85 µM,4 µM and 23.7 µM,> 100 µM,0.306 µM and 0.842 µM,0.366 µM and 0.624 µM,> 3.33 µM and 53.9 µM,2.34 µM and 4.94 µM,> 2.61 µM and 27.3 µM,> 3.51 µM and 19.1 µM,> 2.22 µM and 9.44 µM,2.75 µM and 10.7 µM,> 2.85 µM and 22.2 µM
CC1(C)C(CC(=O)O)CCCC1CC(=O)O (stereo not drawn),> 100 µM,> 100 µM,> 100 µM,> 100 µM,> 100 µM,> 100 µM,> 100 µM,> 100 µM,,> 100 µM,> 100 µM,,,,,,,,,
CN(C)C1CN(C(=O)c2cc(-c3ccc4ncnc(N5CCc6cc(F)c(Cl)cc65)c4c3)cnc2N)C1,> 100 µM,4.02 µM,> 100 µM,,2.7 µM,2.92 µM,> 100 µM,,0.43 µM,2.16 µM,> 100 µM,1.17 µM,0.436 µM,0.495 µM,0.687 µM,0.489 µM,1.54 µM,0.743 µM,0.728 µM,0.458 µM
O=C(CCN1CCCN(c2cnc3ccccc3n2)CC1)c1csc2ccccc12,> 100 µM,32.3 µM,34.8 µM,32.2 µM,41.8 µM,30 µM,> 100 µM,30.1 µM,19.7 µM,34.2 µM,31.3 µM,> 100 µM,18.4 µM,18.9 µM,18.1 µM,12.6 µM,16.2 µM,28.9 µM,16.5 µM,17.2 µM
Nc1c(C(=O)Nc2cccc(C(F)(F)F)c2)sc2nc3c(cc12)CCCCCC3,6.29 µM,9.59 µM,15.3 µM,13.9 µM,17.5 µM,15 µM,13.7 µM,4.34 µM,3.25 µM,21.5 µM,11.2 µM,2.26 µM,2.54 µM,2.63 µM,2.1 µM,2.96 µM,2.15 µM,3.29 µM,1.69 µM,3.04 µM
Fc1ccc(Nc2nc3nonc3nc2Nc2ccc(I)cc2)cc1,0.962 µM,2.02 µM,10.5 µM,10.8 µM,2.13 µM,0.325 µM,20.2 µM,11.3 µM,0.142 µM,2.16 µM,1.44 µM,0.269 µM,0.266 µM,0.302 µM,0.276 µM,0.0855 µM,0.147 µM,0.373 µM,0.24 µM,0.349 µM
CC1[C@@H]2CC=C3[C@H]4CCC5Cc6nc7c(nc6C[C@@]5(C)C4CC(=O)[C@]32CO[C@]12OC(C)(C)CC2O)CC1CC[C@@H]2C3=C[C@H]4O[C@@]5(O[C@@](C)(CO)C[C@@H]5O)C(C)[C@@]4(O)[C@]3(C)[C@@H](O)CC2[C@]1(C)C7 (stereo partly drawn),0.0239 µM and 0.073 µM,0.363 µM,0.102 µM and 0.129 µM,0.0168 µM,0.000261 µM and < 0.000365 µM,0.022 µM and 0.146 µM,0.139 µM and 0.0237 µM,0.0837 µM and 0.532 µM,0.000316 µM and 0.000574 µM,0.00098 µM and 0.0062 µM,,0.00138 µM and 0.00234 µM,0.000751 µM,0.0041 µM and 0.00763 µM,0.00111 µM,0.000106 µM and < 0.000365 µM,0.00235 µM and 0.00215 µM,0.013 µM and 0.00425 µM,0.000846 µM and 0.00281 µM,0.000361 µM and 0.000576 µM
COc1cc(C(=O)NN=C2c3ccccc3-c3ccccc32)cc(OC)c1OC,> 100 µM,28.9 µM,> 100 µM,1.46 µM,> 100 µM,18 µM,> 100 µM,> 100 µM,3.09 µM,24.8 µM,49.4 µM,4.12 µM,3.78 µM,2.63 µM,0.3 µM,3.5 µM,2.65 µM,7.95 µM,2.71 µM,2.78 µM
COCCn1c2c([n+](Cc3cnccn3)c1C)C(=O)c1ccccc1C2=O,0.573 µM,0.0876 µM,> 100 µM,< 0.01 µM,< 0.0114 µM,0.0162 µM,0.129 µM,0.0106 µM,0.0185 µM,0.0454 µM,< 0.0118 µM,0.0588 µM,0.0264 µM,0.251 µM,< 0.01 µM,< 0.01 µM,< 0.01 µM,0.0308 µM,< 0.01 µM,< 0.01 µM
O=C(N/N=C/c1ccncc1)c1ccc(F)cc1,> 40 µM,> 40 µM,> 40 µM,> 40 µM,> 40 µM,> 40 µM,> 40 µM,> 40 µM,> 40 µM,> 40 µM,> 40 µM,> 40 µM,> 40 µM,> 40 µM,> 40 µM,> 40 µM,> 40 µM,> 40 µM,> 40 µM,> 40 µM
C=CC(=O)N1CCC[C@@H](n2nc(-c3ccc(Oc4ccccc4)cc3)c3c(N)ncnc32)C1,> 2.42 µM,> 10 µM,> 10 µM,> 10 µM,> 10 µM,> 10 µM,> 10 µM,> 10 µM,> 4.22 µM,> 10 µM,> 10 µM,0.0285 µM,> 7.69 µM,> 10 µM,> 10 µM,> 7.41 µM,> 10 µM,> 10 µM,> 10 µM,> 5.39 µM
Nc1cc(N)c2nc(NCCc3ccc(Cl)c(Cl)c3)cnc2c1,32 µM,34.8 µM,27.3 µM,13.6 µM,7.81 µM,27.1 µM,34.6 µM,15.1 µM,14.1 µM,27.8 µM,31.1 µM,17.1 µM,20.1 µM,13.5 µM,3.96 µM,2.54 µM,13.8 µM,20 µM,3.7 µM,12 µM
COc1c(B(O)O)cccc1-c1nc2c(F)cc3n[nH]c(C)c3c2c2c1CCCC2,4.71 µM,3.14 µM,> 50 µM,> 50 µM,4.81 µM,2.96 µM,> 50 µM,> 50 µM,1.55 µM,8.39 µM,4.14 µM,0.666 µM,0.238 µM,1.49 µM,1.86 µM,0.655 µM,0.932 µM,1.08 µM,0.314 µM,0.688 µM
CC(C)C1=CC2=C(C(=O)C1=O)C13CCCC(C)(C)C1CC2OC3=O (stereo not drawn),> 100 µM,37.4 µM,30.7 µM,43.2 µM,39.7 µM,55.1 µM,59.7 µM,33.2 µM,,27.4 µM,39.7 µM,,,,,,,,,
NC(=O)c1csc(-c2ccc(CO)o2)n1,> 100 µM,> 100 µM,> 100 µM,> 100 µM,> 100 µM,> 100 µM,> 100 µM,> 100 µM,,> 100 µM,> 100 µM,,,,,,,,,
CC[C@@H](C)/C=C(C)/C=C/C(=O)c1c(O)c(-c2ccc(O)cc2)cn(OC2CC(=O)CCC(C)OC(=O)CC2O)c1=O (stereo partly drawn),35.6 µM,16.2 µM,15.8 µM,19 µM,22.9 µM,0.978 µM,23.3 µM,13 µM,0.279 µM,1.15 µM,2.7 µM,0.463 µM,0.554 µM,0.145 µM,0.485 µM,0.463 µM,0.271 µM,2.35 µM,0.272 µM,0.171 µM
O=C(O)c1ccc(/C=N/N=C2c3ccccc3-c3ccccc32)cc1,> 100 µM,> 100 µM,> 100 µM,> 100 µM,> 100 µM,> 100 µM,> 100 µM,> 100 µM,,> 100 µM,> 100 µM,,,,,,,,,
C[C@]12CC[C@@H]3c4ccc(OC(=O)N(CCCl)CCCl)cc4CC[C@H]3[C@@H]1CC[C@@H]2OP(=O)(O)O,> 89.2 µM,79.1 µM,> 100 µM,50.4 µM,> 100 µM,> 100 µM,> 100 µM,> 100 µM,22.9 µM,> 72.5 µM,> 100 µM,32.7 µM,27.1 µM,43.5 µM,15.6 µM,39.8 µM,37.7 µM,> 62.7 µM,41.9 µM,46.2 µM
CN(C)CCCCNc1ccc(NCCCCN(C)C)c2c1C(=O)c1c(O)ccc(O)c1C2=O,9.8 µM,29.5 µM,2.93 µM,26.1 µM,6.49 µM,26.3 µM,3.14 µM,2.83 µM,15.3 µM,29.1 µM,2.73 µM,3.06 µM,16 µM,1.55 µM,13.3 µM,2.54 µM,13.5 µM,1.66 µM,1.51 µM,1.42 µM
O=C1OCC2=C1C(c1cccc(Cl)c1)c1cc3c(cc1N2CCO)CCC3 (stereo not drawn),7.8 µM,8.69 µM,12.6 µM,0.0491 µM,10.1 µM,0.28 µM,18.2 µM,2.92 µM,0.0427 µM,15.3 µM,13.8 µM,0.0414 µM,0.166 µM,0.0471 µM,0.02 µM,0.0386 µM,0.0291 µM,0.143 µM,0.0447 µM,0.0661 µM
CC/C(=C(/c1ccc(OCCN(C)C)cc1)c1ccc(OC(=O)CCCCCCCCC(=O)c2c(C)[nH]c(/C=C3\N=C(c4ccc[nH]4)C=C3OC)c2C)cc1)c1ccccc1,> 100 µM,> 100 µM,97.8 µM,> 100 µM,> 100 µM,3.2 µM,> 100 µM,21.8 µM,3.37 µM,18.1 µM,5.93 µM,> 100 µM,5.21 µM,5.12 µM,4.63 µM,3.75 µM,1.61 µM,> 100 µM,3.36 µM,2.36 µM
CCC(C)C1NC(=O)C(NC(=O)C(CC(C)C)N(C)C(=O)[C@@H]2CC(O)CN2C(=O)[C@H](C)O)C(C)OC(=O)[C@H](Cc2ccc(OC)cc2)N(C)C(=O)[C@@H]2CCCN2C(=O)[C@H](CC(C)C)NC(=O)C(C)C(=O)[C@H](C(C)C)OC(=O)CC1O (stereo partly drawn),1.11 µM and 0.404 µM,0.855 µM and 0.233 µM,12.7 µM,0.705 µM and 0.41 µM,1.77 µM,0.445 µM and 0.0574 µM,2.53 µM and 2.14 µM,1.01 µM and 1.6 µM,< 0.01 µM,0.361 µM and 0.0495 µM,1.06 µM and 0.193 µM,0.0209 µM,0.0259 µM,0.315 µM,0.0365 µM,0.0695 µM,< 0.01 µM,0.417 µM,< 0.01 µM,0.0218 µM
Cc1c(Cl)c(C)c(Cl)c(O)c1Cl,> 100 µM,81.7 µM,75.6 µM,60.7 µM,68.3 µM,35.9 µM,> 100 µM,39.6 µM,,37.4 µM,> 100 µM,,,,,,,,,
